Assay results reported in patent US10584283B2, “Preservative for technical products” (Schülke & Mayr GmbH, priority 2015, dated 2020).

Assay: Storage stability in polyethylene bottles, Experiment 6 (other alkalizing agents)
Type: physicochemical
Method: It was also investigated whether the stabilization achieved according to the invention with the particularly preferred agent MIPA is also achieved with other alkalizing agents.
Samples of the solutions were stored in bottles made of polyethylene at −5° C., 25° C. and 40° C. in order to investigate the stability.

Storage stability / compatibility (conclusion in words): incompatible with TTT
SMILES: CCCCCCCCCCCCN(CCCN)CCCN [N,N-bis(3-aminopropyl)-dodecylamine]
